These results are taken from patent US20110009462A1, “STABLE, SYNERGISTIC MIXTURES” (LANXESS DEUTSCHLAND GMBH, priority 2007, published 2011).

Holding throughout (assay type): cell-based
For assay [1], the system named is Pseudomonas fluorescens. Briefly: MIC and synergism (Kull) against Pseudomonas fluorescens, Landy minimal medium pH 7. How it is done: (§1) The synergism was determined by the method described by Kull et al. (F. C. Kull, P. C. Eismann, H. D. Sylvestrowicz, R. L. Mayer, Applied Microbiology 9, 538 to 541, 1961). The following relationships apply:
(§2) [formula] • Qa=amount of substance A • Qb=amount of substance B • MIC(A)=concentration of substance A which prevents microbial growth • MIC(B)=concentration of substance B which prevents microbial growth • MIC(A+B)=concentration of substance A+B which prevents microbial growth • SI=synergistic index, where SI=1 means additive effect • SI>1 means antagonism • SI<1 means synergism
Various concentrations of GDA and MIT and mixtures of the two abovementioned active substances were tested against the bacterium Pseudomonas fluorescens. The incubation is performed in Landy minimal medium at pH 7 and 26° C. The growth of Pseudomonas fluorescens was compared at various active substance concentrations with the growth without active substance. The lowest concentration at which growth was no longer detected is stated as the minimum inhibitory concentration (MIC).

In assay [2] the test system is Pseudomonas fluorescens. Briefly: MIC and synergism (Kull) against Pseudomonas fluorescens, Landy minimal medium pH 9. How it is done: as §1, §2
Various concentrations of GDA and MIT and mixtures of the two abovementioned active substances were tested against the bacterium Pseudomonas fluorescens. The incubation is performed in Landy minimal medium at pH 9 and 26° C. The growth of Pseudomonas fluorescens was compared at the various active substance concentrations with the growth without active substance. The lowest concentration at which growth was no longer detected is stated as the minimum inhibitory concentration (MIC).

In a further assay the test system is Corynebacterium. Briefly: MIC and synergism (Kull) against Corynebacterium, Landy minimal medium pH 9. On the procedure: as §1, §2
Various concentrations of GDA and MIT and mixtures of the two abovementioned active substances were tested against the bacterium Corynebacterium. The incubation is performed in Landy minimal medium at pH 9 and 26° C. The growth of Corynebacterium was compared at the various active substance concentrations with the growth without active substance. The lowest concentration at which growth was no longer detected is stated as the minimum inhibitory concentration (MIC).

The test system of a further assay is Rhodotorula rubra. Briefly: MIC and synergism (Kull) against yeast Rhodotorula rubra, malt extract liquid medium. On the procedure: as §1, §2
Various concentrations of GDA and MIT and mixtures of the two abovementioned active substances were tested against the yeast Rhodotorula rubra. The incubation is performed in malt extract liquid medium at 26° C. The growth of Rhodotorula rubra was compared at the various active substance concentrations with the growth without active substance. The lowest concentration at which growth was no longer detected is stated as the minimum inhibitory concentration (MIC).

The mark [3] stands for this setting: Landy minimal medium, pH 9, 26° C.

Regarding `O=CCCCC=O` [GDA, glutardialdehyde], the MIC with Pseudomonas fluorescens [1] (Landy minimal medium, pH 7, 26° C.) came to 20 ppm; with Pseudomonas fluorescens [2] (setting [3]) it was 50 ppm; with Corynebacterium (setting [3]), 10 ppm; in the assay with Rhodotorula rubra (Rhodotorula rubra, malt extract liquid medium, 26° C.), 100 ppm.

Take `Cn1sccc1=O` [MIT, 2-methyl-2H-isothiazol-3-one]: the MIC came out at 5 µg/mL with Pseudomonas fluorescens [1] (pH 7), 20 µg/mL in the assay with Pseudomonas fluorescens [2] (pH 9), 5 µg/mL with Corynebacterium (pH 9) and 50 µg/mL with Rhodotorula rubra (Rhodotorula).
